Test results taken from US20140296146A1, “Thermostable Inhibitors of Activation of the Blood Clotting System Through Contact with Foreign Surfaces” (Synapse B.V., priority 2011, published 2014).
Each block holds one molecule with its values, some of them ahead of it.

Experiments:
contact activation = assay: Thrombin generation (CAT) in platelet poor plasma contact activated with kaolin; assay type: biochemical, human; conditions: for 4 × lag-time (ng/ml) / 4 × lag-time (μM): concentration that prolongs clotting time of kaolin contact activated plasma four times
Experimental: Thrombin generation was carried out according to WO2003/093831.
Following a double centrifugation at 2500×g for 15 min at room temperature, platelet poor plasma (PPP) was collected from the upper half volume of plasma supernatant, quick frozen and stored at −80° C. The absence of platelet and leucocyte in PPP was checked with an ADVIA 120 counter (Bayer Diagnostics, NY, USA).
Recombinant human tissue factor Innovin® was obtained from Dade Behring (Marburg, Germany) and used at a final concentration of 0.5 pM in PRP and 1 or 5 pM in PPP samples. The phospholipid vesicles used at a final concentration of […] were obtained from Avanti Polar Lipids (Alabaster, Ala., USA) and consisted of 20 mol % phosphatidylserine (PS), 20 mol % phosphatidylethanolamine (PE) and 60 mol % phosphatidylcholine (PC) and were prepared by extrusion method (9,10). Kaolin light (hydrated aluminium silicate) was obtained from Baker Harrison ltd, (Ilford, UK).
Hepes-buffered saline contained 20 mM Hepes (Sigma Aldrich, l'Ile d'Abeau Chesnes, France), 140 mM NaCl and 5 mg/mL bovine serum albumin (BSA) (Euromedex, Souffelweyersheim, France), pH 7.35. This buffer was stored at −20° C. until use. A fresh mixture of fluorogenic substrate and CaCl2 was prepared before each experiment. Fluorogenic substrate, Z-Gly-Gly-Arg-AMC, was obtained from Bachem (Bubendorf, Switzerland). The mixture of fluorogenic substrate 2.5 mM and CaCl2 0.1 M was prepared using buffer containing Hepes 20 mM and 60 mg/mL BSA, pH 7.35. The Calibrator with the activity of 600 nM human thrombin was obtained from Thrombinoscope BV (Maastricht, The Netherlands). Transparent, round bottom Greiner microtiter plates (Greiner ref 65204, Poitiers, France) were used.
Thrombin generation was measured using Calibrated Automated Thrombography (CAT) according to the methodology of WO2003/093831 and a 96-well plate fluorometer (Fluoroscan Ascent Reader, Thermolab systems OY, Helsinki, Finland) equipped with a 390/460 nm filter set. Briefly, 80 μL of plasma is dispensed into the wells of round-bottom 96 well-microtiter plates. 20 μL of a mixture containing tissue factor and phospholipids is added to the PPP sample; alternatively, in order to obtain contact activation, the citrated plasma is preincubated for at least 10 min with 1 mg/ml of Kaolin light. The starting reagent (20 μL per well) contains fluorogenic substrate and CaCl2. […] The most important parameters that can be derived from CAT are lag time, endogenous thrombin potential corresponding to the area under the CAT curve, peak height of thrombin and time to peak.

h-FXIIa = target: T1, h-FXIIa (Homo sapiens, UniProt P00748); assay: Stability of CTI, PTI and TICA at RT and at 95° C., read as inhibition of h-FXIIa; assay type: physicochemical; conditions: for Residual activity / Calculated total I / Activity of FXIIa / Free FXIIa: inhibitor exposed 60 minutes to 95° C.; for Calculated total I / Activity of FXIIa / Free FXIIa: added CTI 8.1 nM, TICA1 306 nM; for Activity of FXIIa / Free FXIIa: total FXIIa 9.33 nM
T1 construct: purchased Enzyme Research Laboratories FXIIa 1212A
T1 sequence (P00748 373-615 limits assumed): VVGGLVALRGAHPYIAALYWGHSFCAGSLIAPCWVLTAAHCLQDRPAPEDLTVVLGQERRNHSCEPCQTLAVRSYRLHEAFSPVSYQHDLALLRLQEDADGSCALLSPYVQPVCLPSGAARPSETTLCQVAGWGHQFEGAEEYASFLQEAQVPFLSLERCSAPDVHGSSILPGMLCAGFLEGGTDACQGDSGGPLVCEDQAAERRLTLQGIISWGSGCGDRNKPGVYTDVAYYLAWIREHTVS
T1 sequence (P00748 20-372 partner limits assumed): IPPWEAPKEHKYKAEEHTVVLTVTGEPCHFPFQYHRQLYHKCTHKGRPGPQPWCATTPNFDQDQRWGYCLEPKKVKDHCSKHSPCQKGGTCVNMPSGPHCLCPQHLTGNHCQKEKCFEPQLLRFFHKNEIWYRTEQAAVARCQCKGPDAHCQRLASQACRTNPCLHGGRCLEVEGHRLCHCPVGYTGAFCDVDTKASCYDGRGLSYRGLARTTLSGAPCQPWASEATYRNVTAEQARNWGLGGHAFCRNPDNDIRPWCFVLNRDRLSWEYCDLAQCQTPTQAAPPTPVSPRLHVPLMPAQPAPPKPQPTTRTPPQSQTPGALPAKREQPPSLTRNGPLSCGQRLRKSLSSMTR
Experimental: Materials • S2302 From Chromogenic, lot # N0398718 SEQ0860, exp. date 2012-07. Water added on 7 Oct. […] On 3 Aug. […] Product code FXIIa 1212A, lot #FXIIa 2520PL. Bottle with 0.5 mg was reconstituted with 370 μl pure water. […] Buffer 4 mM NaAc, 150 mM NaCl (pH 5.3). Preparation was divided into 20 μl amounts and frozen at −80° C. • Hepes735 140 mM NaCl, 20 mM Hepes, 0.02% NaN3 (pH 7.35). • BSA5 Hepes735+5 mg/ml BSA. • CTI Prepared on 17 Dec. 2004, 0.141 mg/ml, i.e. 0.141/12028=11.7*10^−6 M (11.7 μM). One portion was thawed and divided into 3 parts. […]
Stock FXIIa was diluted 700× in BSA5. The inhibitor was diluted in BSA5 as indicated. Wells contained 70 μl diluted FXIIa (5 nM final), 70 μl inhibitor and 20 μl S2302 (475 or 462.5 μM final). The reaction was started after 5 min heating on the heating plate with S2302. Filters 405 nm and 490 nm reference. Found ΔmA/min was multiplied by 2.14 to get the figure for a 1 cm path.
The residual activity (V) was fitted against the inhibitor concentration with equation:
V=(E+(sqrt(Ê2+2*E*(Ki−I)+Î2+2*I*Ki+Kî2)−E−I−Ki)/2)*kcat*S/(Km+S)
in which E=[FXIIa], Ki is the dissociation constant, I=[Inhibitor], kcat and Km are Michaelis constants and S=[S2302].
To calculate the concentration of I the equation I=x·(x−E−Ki)/(x−E) was used. In this equation is I the calculated inhibitor concentration, x=the residual activity of FXIIa (free FXIIa), E the total FXIIa concentration (=9.33 nM), and Ki the dissociation or inhibitor constant.

[1] = Retention of biological activity at room temperature and in boiling water; assay type: physicochemical; conditions: for biological activity after heating: 0.1 mM solution in closed ampoule in boiling water for 60 min
Experimental: (Example 7) This means that, unlike CTI, it can be added to citrate tubes that can be sterilized and used under clinical conditions. About 0.10 mg of TICA1 would be required per vacuum tube meant to take 10 ml of blood.

[2] = contact activation of PPP by kaolin
[3] = Kaolin, CTI 0.72 μM (8.64 μg/ml)

Molecule: CC[C@H](C)[C@@H]1NC(=O)[C@H](CCCNC(=N)N)NC(=O)[C@@H]2CCCN2C(=O)[C@@H](NC(=O)[C@@H](NC(=O)[C@@H](N)CCCNC(=N)N)C(C)C)CSSC[C@@H]2NC(=O)[C@H](CCC(=O)O)NC(=O)[C@H](C)NC(=O)[C@H](CC(C)C)NC(=O)[C@@H]3CSSC[C@@H](C(=O)NCC(=O)O)NC(=O)[C@H](Cc4ccc(O)cc4)NC(=O)CNC(=O)[C@H](Cc4c[nH]cn4)NC(=O)[C@H](CCC(=O)O)NC(=O)[C@H](CC(C)C)NC(=O)[C@H](CSSC[C@H](NC(=O)[C@H](CCCCN)NC(=O)[C@H](CCSC)NC(=O)[C@H](CC(C)C)NC1=O)C(=O)N[C@@H](CCCCN)C(=O)N[C@@H](CCCCN)C(=O)N[C@@H](CC(=O)O)C(=O)N[C@@H](CO)C(=O)N[C@@H](CC(=O)O)C(=O)N3)NC(=O)[C@H](C(C)C)NC2=O [TICA1]
effect on lag time of thrombin generation triggered by contact activation (contact activation; FIG. 1): prolong the lag time
inhibition of contact activation of PPP (contact activation; PPP incubated with kaolin, 0.94 to 4.6 μM): dose-dependent inhibition
4 × lag-time (ng/ml) (contact activation; After heating): 7.5 ng/mL
4 × lag-time (μM) (contact activation; After heating): 2.3 µM
4 × lag-time (ng/ml) (contact activation; Before heating): 7.8 ng/mL
4 × lag-time (μM) (contact activation; Before heating): 2.4 µM
potency compared with CTI on a molar basis (contact activation; [2]): ~2.5 times less potent
potency compared with CTI on a weight basis (contact activation; [2]): equipotent
Ki (h-FXIIa; (Ki) (nM), inhibitor 30 min 95° C., h-FXIIa 5.01 nM): 24 nM
Res. Act. (%) (h-FXIIa; inhibitor 30 min 95° C.): 94%
Res. Act. (%) (h-FXIIa; inhibitor at RT during 72 hrs): 102%
Residual activity (h-FXIIa): 81.7%
Calculated total I (h-FXIIa): 250 nM
Activity of FXIIa (h-FXIIa): 33.5 ± 1.78 mA/min
Free FXIIa (h-FXIIa): 3.93 nM
Res. Act. (%) (h-FXIIa; inhibitor kept at −80° C.): 100%
biological activity after heating [1]: does not affect its biological activity
stability at room temperature ([1]; left for weeks at room temperature): without loosing activity

Activity of FXIIa (h-FXIIa): 66.3 ± 1.32 mA/min
Free FXIIa (h-FXIIa): 7.77 nM
B1: Corn trypsin inhibitor (other, UniProt P01088 29-138, looked up)
chain: SAGTSCVPGWAIPHNPLPSCRWYVTSRTCGIGPRLPWPELKRRCCRELADIPAYCRCTALSILMDGAIPPGPDAQLEGRLEDLPGCPREVQRGFAATLVTEAECNLATIS
notes: also called CTI
ETP (contact activation; [3]): 1116
Lag-time (contact activation; [3]): 18.62
Peak (contact activation; [3]): 385
ttPeak (contact activation; [3]): 20.06
Residual activity (h-FXIIa): 29.3%
Calculated total I (h-FXIIa): 2.37 nM
biological activity after heating [1]: significantly inactivated
